From article PMC4143601 (Cancer Chemotherapy and Pharmacology, 2014)
Entries after “also recorded” stand apart in the source; their conditions may differ. Where two headings read alike, the source gives them in different places.

How the values were obtained:
advanced solid tumors = experiment: Tumor response, best overall response (RECIST version 1.0); format: in vivo, human (Japanese patients)
Experimental: (§1) The starting dose was 8 mg/m^2, and treatment cycles were 28 days. Intra-patient dose escalation was not permitted. An adaptive Bayesian logistic regression model (BLRM), guided by the escalation with overdose control (EWOC) principle, was used to guide dose escalations. The EWOC principle mandates the potential doses recommended for the next cohort and the estimated MTD have less than 25 % posterior probability of DLT in the excessive toxicity interval (33, 100 %). […] The occurrence of DLTs was evaluated during Cycle 1. A minimum of three patients were enrolled in a cohort, and the estimated MTD was continuously updated using the BLRM, and a minimum of six patients were planned to be enrolled at the MTD level. […] A minimum of 15 patients were required for the BLRM model to determine the MTD. […] Doses were individually adjusted according to body surface area measured at baseline.
(§2) Toxicity was graded according to the National Cancer Institute Common Toxicity Criteria version 3.0. […] Tumor response was assessed by computed tomography or magnetic resonance imaging, and using Response Evaluation Criteria in Solid Tumors version 1.0 for efficacy evaluations.

[1] = Pharmacokinetics of AUY922 and its glucuronide metabolite BJP762 in blood (LC-MS/MS, non-compartmental); format: in vivo, human (Japanese patients with advanced solid tumors); settings: for half-life / Tmax / AUC(0-inf) / AUC(0-t) / Cmax / clearance / Vd: human; for half-life / Tmax: blood; for Tmax: read-out: T max [median (range)]; for AUC(0-inf) / AUC(0-t) / Cmax / clearance / Vd: whole blood; for Vd: read-out: Vz
Experimental: Intra-patient dose escalation was not permitted. […] The occurrence of DLTs was evaluated during Cycle 1.

[2] = Experimental: Inclusion criteria included Eastern Cooperative Oncology Group performance status ≤2 and life expectancy ≥12 weeks.
as §1, §2
The DDS was used for the BLRM analyses in the determination of MTD.

CCNC(=O)c1noc(-c2cc(C(C)C)c(O)cc2O)c1-c1ccc(CN2CCOCC2)cc1 [AUY922, 5-[2,4-dihydroxy-5-isopropyl-phenyl]-N-ethyl-4-[4-(morpholinomethyl)phenyl]isoxazole-3-carboxamide]
Best overall response: Complete response (advanced solid tumors; 8 mg/m^2 (n = 3)): 0 n | Best overall response: Partial response (advanced solid tumors; 8 mg/m^2 (n = 3)): 0 n | Best overall response: Progressive disease (advanced solid tumors; 8 mg/m^2 (n = 3)): 2 n | Best overall response: Stable disease (advanced solid tumors; 8 mg/m^2 (n = 3)): 1 n | Best overall response: Unknown (advanced solid tumors; 8 mg/m^2 (n = 3)): 0 n | Disease control rate (CR + PR + SD) (advanced solid tumors; 8 mg/m^2 (n = 3)): 1 n | Overall response rate (CR + PR) (advanced solid tumors; 8 mg/m^2 (n = 3)): 0 n | Best overall response: Complete response (advanced solid tumors; 16 mg/m^2 (n = 3)): 0 n | Best overall response: Partial response (advanced solid tumors; 16 mg/m^2 (n = 3)): 0 n | Best overall response: Progressive disease (advanced solid tumors; 16 mg/m^2 (n = 3)): 2 n | Best overall response: Stable disease (advanced solid tumors; 16 mg/m^2 (n = 3)): 1 n | Best overall response: Unknown (advanced solid tumors; 16 mg/m^2 (n = 3)): 0 n | Disease control rate (CR + PR + SD) (advanced solid tumors; 16 mg/m^2 (n = 3)): 1 n | Overall response rate (CR + PR) (advanced solid tumors; 16 mg/m^2 (n = 3)): 0 n | Best overall response: Complete response (advanced solid tumors; 22 mg/m^2 (n = 3)): 0 n | Best overall response: Partial response (advanced solid tumors; 22 mg/m^2 (n = 3)): 0 n | Best overall response: Progressive disease (advanced solid tumors; 22 mg/m^2 (n = 3)): 3 n | Best overall response: Stable disease (advanced solid tumors; 22 mg/m^2 (n = 3)): 0 n | Best overall response: Unknown (advanced solid tumors; 22 mg/m^2 (n = 3)): 0 n | Disease control rate (CR + PR + SD) (advanced solid tumors; 22 mg/m^2 (n = 3)): 0 n | Overall response rate (CR + PR) (advanced solid tumors; 22 mg/m^2 (n = 3)): 0 n | Best overall response: Complete response (advanced solid tumors; 28 mg/m^2 (n = 5)): 0 n | Best overall response: Partial response (advanced solid tumors; 28 mg/m^2 (n = 5)): 0 n | Best overall response: Progressive disease (advanced solid tumors; 28 mg/m^2 (n = 5)): 4 n | Best overall response: Stable disease (advanced solid tumors; 28 mg/m^2 (n = 5)): 1 n | Best overall response: Unknown (advanced solid tumors; 28 mg/m^2 (n = 5)): 0 n | Disease control rate (CR + PR + SD) (advanced solid tumors; 28 mg/m^2 (n = 5)): 1 n | Overall response rate (CR + PR) (advanced solid tumors; 28 mg/m^2 (n = 5)): 0 n | Best overall response: Complete response (advanced solid tumors; 40 mg/m^2 (n = 3)): 0 n | Best overall response: Partial response (advanced solid tumors; 40 mg/m^2 (n = 3)): 0 n | Best overall response: Progressive disease (advanced solid tumors; 40 mg/m^2 (n = 3)): 2 n | Best overall response: Stable disease (advanced solid tumors; 40 mg/m^2 (n = 3)): 1 n | Best overall response: Unknown (advanced solid tumors; 40 mg/m^2 (n = 3)): 0 n | Disease control rate (CR + PR + SD) (advanced solid tumors; 40 mg/m^2 (n = 3)): 1 n | Overall response rate (CR + PR) (advanced solid tumors; 40 mg/m^2 (n = 3)): 0 n | Best overall response: Complete response (advanced solid tumors; 54 mg/m^2 (n = 6)): 0 n | Best overall response: Partial response (advanced solid tumors; 54 mg/m^2 (n = 6)): 1 n | Best overall response: Progressive disease (advanced solid tumors; 54 mg/m^2 (n = 6)): 3 n | Best overall response: Stable disease (advanced solid tumors; 54 mg/m^2 (n = 6)): 1 n | Best overall response: Unknown (advanced solid tumors; 54 mg/m^2 (n = 6)): 1 n | Disease control rate (CR + PR + SD) (advanced solid tumors; 54 mg/m^2 (n = 6)): 2 n | Overall response rate (CR + PR) (advanced solid tumors; 54 mg/m^2 (n = 6)): 1 n | Best overall response: Complete response (advanced solid tumors; 70 mg/m^2 (n = 8)): 0 n | Best overall response: Partial response (advanced solid tumors; 70 mg/m^2 (n = 8)): 0 n | Best overall response: Progressive disease (advanced solid tumors; 70 mg/m^2 (n = 8)): 3 n | Best overall response: Stable disease (advanced solid tumors; 70 mg/m^2 (n = 8)): 5 n | Best overall response: Unknown (advanced solid tumors; 70 mg/m^2 (n = 8)): 0 n | Disease control rate (CR + PR + SD) (advanced solid tumors; 70 mg/m^2 (n = 8)): 5 n | Overall response rate (CR + PR) (advanced solid tumors; 70 mg/m^2 (n = 8)): 0 n | Patients with best overall response of stable disease (advanced solid tumors; 70-mg/m^2 cohort, five out of the eight patients): 63% | Best overall response: Complete response (advanced solid tumors; Total, all doses (N = 31)): 0 n (%) | Best overall response: Partial response (advanced solid tumors; Total, all doses (N = 31)): 1 (3) n (%) | Best overall response: Progressive disease (advanced solid tumors; Total, all doses (N = 31)): 19 (61) n (%) | Best overall response: Stable disease (advanced solid tumors; Total, all doses (N = 31)): 10 (32) n (%) | Best overall response: Unknown (advanced solid tumors; Total, all doses (N = 31)): 1 (3) n (%) | Disease control rate (CR + PR + SD) (advanced solid tumors; Total, all doses (N = 31)): 11 (36) n (%) | Overall response rate (CR + PR) (advanced solid tumors; Total, all doses (N = 31)): 1 (3) n (%) | Disease control rate (DCR; PR + SD) (advanced solid tumors; across all dose levels): 36% | Complete response (advanced solid tumors; all doses): no patients achieved a complete response | Patients with confirmed partial response (advanced solid tumors; all doses (N = 31), one patient): 3% | Patients with best overall response of stable disease (advanced solid tumors; all doses (N = 31), ten patients, SD lasting ≥8 weeks): 32% | Duration of confirmed partial response (advanced solid tumors; one patient, rectal carcinoid tumor with lung metastatic lesions, 54 mg/m^2): > 7 months | Dose proportionality of C max in blood ([1]; entire dose range 8–70 mg/m^2): generally increased in a dose-proportional manner; also recorded: increased generally in a dose-proportional manner | half-life ([1]; intravenous, 8 mg/m2): 64 h | half-life ([1]; iv, 28 mg/m2): 98.7 ± 23 h | Tmax ([1]; iv, 28 mg/m2): 0.5 h | half-life ([1]; iv, 40 mg/m2): 123 ± 40.8 h | Tmax ([1]; iv, 40 mg/m2): 1.05 h | half-life ([1]; iv, 54 mg/m2): 120 ± 28.5 h | Tmax ([1]; iv, 54 mg/m2): 0.76 h | half-life ([1]; iv, 70 mg/m2): 127 ± 18.8 h | Tmax ([1]; iv, 70 mg/m2): 1.02 h | AUC(0-inf) ([1]; iv, 28 mg/m2): 9550 ng·h/mL | AUC(0-t) ([1]; iv, 28 mg/m2): 6810 ng·h/mL | Cmax ([1]; iv, 28 mg/m2): 457 ± 101 ng/mL | clearance ([1]; iv, 28 mg/m2): 79.8 mL/min | Vd ([1]; iv, 28 mg/m2): 646 ± 111 L | AUC(0-inf) ([1]; iv, 40 mg/m2): 11400 ng·h/mL | AUC(0-t) ([1]; iv, 40 mg/m2): 6960 ng·h/mL | Cmax ([1]; iv, 40 mg/m2): 710 ± 42 ng/mL | clearance ([1]; iv, 40 mg/m2): 95.7 mL/min | Vd ([1]; iv, 40 mg/m2): 980 ± 132 L | AUC(0-inf) ([1]; iv, 54 mg/m2): 12300 ng·h/mL | AUC(0-t) ([1]; iv, 54 mg/m2): 8880 ng·h/mL | Cmax ([1]; iv, 54 mg/m2): 1050 ng/mL | clearance ([1]; iv, 54 mg/m2): 121 mL/min | Vd ([1]; iv, 54 mg/m2): 1190 L | AUC(0-inf) ([1]; iv, 70 mg/m2): 12600 ng·h/mL | AUC(0-t) ([1]; iv, 70 mg/m2): 8540 ng·h/mL | Cmax ([1]; iv, 70 mg/m2): 1100 ng/mL | clearance ([1]; iv, 70 mg/m2): 143 mL/min | Vd ([1]; iv, 70 mg/m2): 1570 L | Dose dependence of AUClast in blood ([1]; increased with dose from 8 to 28 mg/m^2): saturated at higher dose levels; also recorded: saturated at higher doses | Maximum tolerated dose (MTD) ([2]; IV once-weekly, 8–70 mg/m^2 tested): No MTD was determined; also recorded: the MTD was not determined; also recorded: The MTD was not established | Diarrhea, AE regardless of relationship to study drug ([2]; human, in vivo): 65% | Fatigue, AE regardless of relationship to study drug ([2]; human, in vivo): 29% | Nausea, AE regardless of relationship to study drug ([2]; human, in vivo): 29% | Night blindness, AE regardless of relationship to study drug ([2]; human, in vivo): 42% | Patients with AEs requiring dose modification or interruption ([2]; human, in vivo): 48% | Patients with serious AEs (SAEs) ([2]; human, in vivo): 26% | Patients who experienced DLTs ([2]; human, in vivo, 28 days): 3.6% | Recommended Phase II dose (RP2D) ([2]; human, in vivo, iv): 70 mg/m^2 | Patients discontinued as a result of AEs related to study drug ([2]; in vivo): two patients | Patients with SAEs considered to be related to the study drug ([2]; in vivo): two patients
